One assay has as its target T1, human GST-HPK1 (1-346) (Homo sapiens, UniProt Q92918).
T1 construct: purified human GST-HPK1 (1-346, Signalchem) enzyme; purchased Signalchem
T1 sequence (Q92918 1-346): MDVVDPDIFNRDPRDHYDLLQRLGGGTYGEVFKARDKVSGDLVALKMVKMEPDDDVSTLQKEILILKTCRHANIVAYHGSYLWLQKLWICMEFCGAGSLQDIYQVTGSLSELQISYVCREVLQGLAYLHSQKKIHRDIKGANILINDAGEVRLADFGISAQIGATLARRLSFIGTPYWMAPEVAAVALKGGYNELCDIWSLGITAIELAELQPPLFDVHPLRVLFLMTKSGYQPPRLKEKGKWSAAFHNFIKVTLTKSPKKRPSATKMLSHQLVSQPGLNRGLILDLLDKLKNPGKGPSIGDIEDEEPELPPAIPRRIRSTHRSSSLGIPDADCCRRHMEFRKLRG
The assay can be described thus: HPK1 enzyme inhibitory ability (ADP-Glo kinase assay). The class given is biochemical. As to conditions: human GST-HPK1 3 ng, ATP 3 uM, 25° C. 2 hours. The procedure, abridged:
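Human GST-HPK1(1-346), 3 ng, reacted with 3 uM ATP and specific substrate in 40 mM Tris-HCl pH 7.4, 20 mM MgCl2, 0.5 mg/mL BSA, 50 uM DTT for 2 h at 25° C. ADP-Glo luminescence read; IC50 (nM) relative to untreated solvent control.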
On the technique in general: In ADP-Glo the light output rises with the ADP produced.

For another assay, the system named is MCF-7 cells. Description: Breast cancer cell line proliferation inhibitory activity (CellTiter-Glo 2.0). As to conditions: Homo sapiens, MCF7, 120 hours. It is filed as cell-based. The procedure, abridged: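 MCF-7 cells exposed to a 12-point, 3-fold dilution series (final 0.00005–10 μM) for 120 h at 37 °C. Viability read by CellTiter-Glo 2.0 luminescence, expressed as percent of vehicle-treated cells. GI50 (nM) derived from the curves.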
A general note: Cellular ATP, detected with luciferase, serves as a proxy for viable cell number.

In another assay the target is T2, human FLT3-ITD enzyme (Homo sapiens, UniProt P36888).
T2 sequence (P36888 1-993): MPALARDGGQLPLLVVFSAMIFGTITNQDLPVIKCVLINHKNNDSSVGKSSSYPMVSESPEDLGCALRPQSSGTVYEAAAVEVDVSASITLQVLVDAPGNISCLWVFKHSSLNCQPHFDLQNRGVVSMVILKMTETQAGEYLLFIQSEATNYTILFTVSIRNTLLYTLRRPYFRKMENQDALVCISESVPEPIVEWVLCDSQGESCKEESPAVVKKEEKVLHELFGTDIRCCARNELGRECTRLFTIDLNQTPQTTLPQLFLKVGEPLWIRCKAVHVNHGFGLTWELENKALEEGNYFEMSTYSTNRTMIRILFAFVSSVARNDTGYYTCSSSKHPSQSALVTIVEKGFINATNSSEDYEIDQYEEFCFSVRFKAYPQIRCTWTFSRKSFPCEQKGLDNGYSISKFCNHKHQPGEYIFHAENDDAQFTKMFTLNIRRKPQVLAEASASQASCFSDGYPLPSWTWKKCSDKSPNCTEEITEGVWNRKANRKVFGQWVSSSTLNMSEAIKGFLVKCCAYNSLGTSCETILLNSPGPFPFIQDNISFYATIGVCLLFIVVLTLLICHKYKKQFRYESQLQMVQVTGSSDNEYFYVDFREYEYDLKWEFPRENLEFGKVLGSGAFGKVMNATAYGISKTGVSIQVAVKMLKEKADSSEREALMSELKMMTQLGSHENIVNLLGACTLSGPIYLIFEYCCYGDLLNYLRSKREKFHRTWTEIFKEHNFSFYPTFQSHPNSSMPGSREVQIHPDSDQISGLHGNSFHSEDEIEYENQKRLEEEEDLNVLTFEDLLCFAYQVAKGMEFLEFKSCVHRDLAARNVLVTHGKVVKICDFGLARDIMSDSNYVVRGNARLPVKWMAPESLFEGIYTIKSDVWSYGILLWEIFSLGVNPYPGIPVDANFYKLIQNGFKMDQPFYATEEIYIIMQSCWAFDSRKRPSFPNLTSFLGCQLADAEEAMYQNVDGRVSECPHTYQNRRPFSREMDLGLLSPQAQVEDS
Description: FLT3 enzyme inhibitory ability (ADP-Glo kinase assay). The class given is biochemical. As to conditions: human FLT3-ITD enzyme 10 ng, ATP 10 μM, 25° C. 1 hour. The method in brief:
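Purified human FLT3-ITD (10 ng) with 10 μM ATP and specific substrate in 40 mM Tris-HCl pH 7.4, 20 mM MgCl2, 0.5 mg/mL BSA, 50 μM DTT, 1 h at 25 °C. ADP formation read by ADP-Glo luminescence; IC50 (nM) versus solvent-treated control.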

The test system of the next assay is MV4-11 cells. Description: AML cell proliferation inhibitory activity (CellTiter-Glo). It is filed as cell-based. Conditions: Homo sapiens, 72 hours. The procedure, abridged:
(§1)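 RS4;11 and MV4-11 cells in RPMI-1640 with 10% FBS, seeded 24 h before treatment, then exposed 72 h to 12 three-fold dilutions (0.3 nM–50 μM final). Viability by CellTiter-Glo luminescence relative to solvent control; GI50 from triplicate experiments.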

Another assay has as its system RS4;11 cells. Described as above. Conditions: Homo sapiens, 72 hours. The class given is cell-based. The procedure, abridged: as §1

We go through 15 molecules from patent US20220242870A1, “HETEROCYCLE-FUSED PYRIMIDINE DERIVATIVE AND USE THEREOF” (VORONOI Inc., priority 2019, published 2022).

Take `CN1CCN(c2ccc(Nc3nc(N4N=CCC4c4ccccc4)c4sccc4n3)cn2)CC1` (stereo not drawn) [Example 5, N-(6-(4-methylpiperazin-1-yl)pyridin-3-yl)-4-(5-phenyl-4,5-dihydro-1H-pyrazol-1-yl)thieno[3,2-d]pyrimidin-2-amine]: the concentration for half-maximal inhibition (IC50) against human GST-HPK1 (1-346) and against human FLT3-ITD enzyme was greater than 500 nM in each case. The GI50 in the assay with MCF-7 cells, with MV4-11 cells and in the assay with RS4;11 cells was greater than 500 nM each time.
For `CN1CCN(C2CCN(c3ccc(Nc4nc(N5N=CCC5c5ccccc5)c5sccc5n4)cc3)CC2)CC1` (stereo not drawn) [Example 7, N-(4-(4-(4-methylpiperazin-1-yl)piperidin-1-yl)phenyl)-4-(5-phenyl-4,5-dihydro-1H-pyrazol-1-yl)thieno[3,2-d]pyrimidin-2-amine], the IC50 against human GST-HPK1 (1-346) was greater than 500 nM; against human FLT3-ITD enzyme it was no less than 250 nM. Also, the GI50 with MCF-7 cells is greater than 500 nM; with MV4-11 cells, 250 to 500 nM; with RS4;11 cells it was greater than 500 nM.
Take `CN1CCN(C(=O)c2ccc(Nc3nc(N4N=CCC4c4ccccc4)c4sccc4n3)cc2)CC1` (stereo not drawn) [Example 11, (4-methylpiperazin-1-yl)(4-((4-(5-phenyl-4,5-dihydro-1H-pyrazol-1-yl)thieno[3,2-d]pyrimidin-2-yl)amino)phenyl)methanone]: the IC50 on human GST-HPK1 (1-346) and at human FLT3-ITD enzyme was greater than 500 nM in each case. In addition, the GI50 in the assay with MCF-7 cells, with MV4-11 cells and in the assay with RS4;11 cells was greater than 500 nM each time.
Regarding `C[C@@H]1CN(Cc2cc(Nc3nc(N4N=CCC4c4ccccc4)c4sccc4n3)cc(C3CC3)c2)C[C@H](C)N1` (stereo partly drawn) [Example 12, N-(3-cyclopropyl-5-(((3R,5S)-3,5-dimethylpiperazin-1-yl)methyl)phenyl)-4-(5-phenyl-4,5-dihydro-1H-pyrazol-1-yl)thieno[3,2-d]pyrimidin-2-amine], the IC50 on human GST-HPK1 (1-346) and against human FLT3-ITD enzyme was greater than 500 nM each time. In addition, the GI50 is greater than 500 nM with MCF-7 cells, 250 to 500 nM in the assay with MV4-11 cells and greater than 500 nM in the assay on RS4;11 cells.
With `CN1CCC(Oc2ccc(Nc3nc(N4N=CCC4c4ccccc4)c4sccc4n3)cc2)CC1` (stereo not drawn) [Example 13, N-(4-((1-methylpiperidin-4-yl)oxy)phenyl)-4-(5-phenyl-4,5-dihydro-1H-pyrazol-1-yl)thieno[3,2-d]pyrimidin-2-amine], the IC50 against human GST-HPK1 (1-346) and against human FLT3-ITD enzyme was greater than 500 nM in each case. Further, the GI50 with MCF-7 cells is greater than 500 nM; with MV4-11 cells, 250 to 500 nM; in the assay on RS4;11 cells, greater than 500 nM.
In the case of `CN1CCC(NC(=O)c2ccc(Nc3nc(N4N=CCC4c4ccccc4)c4sccc4n3)cc2)CC1` (stereo not drawn) [Example 19, N-(1-methylpiperidin-4-yl)-4-((4-(5-phenyl-4,5-dihydro-1H-pyrazol-1-yl)thieno[3,2-d]pyrimidin-2-yl)amino)benzamide], the IC50 against human GST-HPK1 (1-346) is greater than 500 nM; against human FLT3-ITD enzyme, no less than 250 nM. Also, the results for the GI50 in the assay on MCF-7 cells, in the assay on MV4-11 cells and with RS4;11 cells were greater than 500 nM, no less than 250 nM and greater than 500 nM, respectively.
For the molecule `CN1Cc2cc(Nc3nc(N4N=CCC4c4ccccc4)c4sccc4n3)ccc2C1=O` (stereo not drawn) [Example 25, 2-methyl-5-((4-(5-phenyl-4,5-dihydro-1H-pyrazol-1-yl)thieno[3,2-d]pyrimidin-2-yl)amino)isoindolin-1-one], the IC50 at human GST-HPK1 (1-346) and against human FLT3-ITD enzyme was greater than 500 nM in each case. The values for the GI50 in the assay on MCF-7 cells, in the assay with MV4-11 cells and with RS4;11 cells were greater than 500 nM, 250 to 500 nM and greater than 500 nM, respectively.
Turning to `CN(C)CCCn1cc(Nc2nc(N3N=CCC3c3ccccc3)c3sccc3n2)cn1` (stereo not drawn) [Example 26, N-(1-(3-(dimethylamino)propyl)-1H-pyrazol-4-yl)-4-(5-phenyl-4,5-dihydro-1H-pyrazol-1-yl)thieno[3,2-d]pyrimidin-2-amine], the IC50 at human GST-HPK1 (1-346) and against human FLT3-ITD enzyme was greater than 500 nM throughout. Besides, the GI50 in the assay with MCF-7 cells, in the assay on MV4-11 cells and with RS4;11 cells was greater than 500 nM each time.
As to `C1=NN(c2nc(Nc3cnn(C4CCNCC4)c3)nc3ccsc23)C(c2ccccc2)C1` (stereo not drawn) [Example 28, 4-(5-phenyl-4,5-dihydro-1H-pyrazol-1-yl)-N-(1-(piperidin-4-yl)-1H-pyrazol-4-yl)thieno[3,2-d]pyrimidin-2-amine], the IC50 was greater than 500 nM at human GST-HPK1 (1-346) and no less than 250 nM at human FLT3-ITD enzyme. The GI50 in the assay with MCF-7 cells is greater than 500 nM; in the assay on MV4-11 cells, no less than 250 nM; with RS4;11 cells, greater than 500 nM.
As to `CN1CCC(n2cc(Nc3nc(N4N=CCC4c4ccccc4)c4sccc4n3)cn2)CC1` (stereo not drawn) [Example 29, N-(1-(1-methylpiperidin-4-yl)-1H-pyrazol-4-yl)-4-(5-phenyl-4,5-dihydro-1H-pyrazol-1-yl)thieno[3,2-d]pyrimidin-2-amine], the half-inhibitory concentration (IC50) on human GST-HPK1 (1-346) and on human FLT3-ITD enzyme was greater than 500 nM throughout. The GI50 is greater than 500 nM with MCF-7 cells, 250 to 500 nM with MV4-11 cells and greater than 500 nM in the assay on RS4;11 cells.
For the molecule `CN1CCN(c2ccc(Nc3nc(N4N=CCC4C4CCCCC4)c4sccc4n3)cc2)CC1` (stereo not drawn) [Example 30, 4-(5-cyclohexyl-4,5-dihydro-1H-pyrazol-1-yl)-N-(4-(4-methylpiperazin-1-yl)phenyl)thieno[3,2-d]pyrimidin-2-amine], the IC50 against human GST-HPK1 (1-346) and against human FLT3-ITD enzyme was greater than 500 nM throughout. The values for the GI50 in the assay on MCF-7 cells, with MV4-11 cells and in the assay with RS4;11 cells were greater than 500 nM, 250 to 500 nM and no less than 250 nM, respectively.
For `CN1CCN(c2ccc(Nc3nc(N4N=CCC4c4ccc5ccccc5c4)c4sccc4n3)cc2)CC1` (stereo not drawn) [Example 31, N-(4-(4-methylpiperazin-1-yl)phenyl)-4-(5-(naphthalen-2-yl)-4,5-dihydro-1H-pyrazol-1-yl)thieno[3,2-d]pyrimidin-2-amine], the IC50 at human GST-HPK1 (1-346) and against human FLT3-ITD enzyme was greater than 500 nM in each case. Moreover, the GI50 with MCF-7 cells, with MV4-11 cells and in the assay with RS4;11 cells was greater than 500 nM throughout.
Consider `CN1CCN(c2ccc(Nc3nc(N4N=CCC4c4cccnc4)c4sccc4n3)cc2)CC1` (stereo not drawn) [Example 34, N-(4-(4-methylpiperazin-1-yl)phenyl)-4-(5-(pyridin-3-yl)-4,5-dihydro-1H-pyrazol-1-yl)thieno[3,2-d]pyrimidin-2-amine], for which the IC50 at human GST-HPK1 (1-346) and against human FLT3-ITD enzyme was greater than 500 nM each time. In addition, the concentration for 50% growth inhibition (GI50) with MCF-7 cells, in the assay on MV4-11 cells and with RS4;11 cells was greater than 500 nM each time.
In the case of `CN1CCN(c2ccc(Nc3nc(N4N=CCC4c4cccc(F)c4)c4sccc4n3)cc2)CC1` (stereo not drawn) [Example 36, 4-(5-(3-fluorophenyl)-4,5-dihydro-1H-pyrazol-1-yl)-N-(4-(4-methylpiperazin-1-yl)phenyl)thieno[3,2-d]pyrimidin-2-amine], the IC50 against human GST-HPK1 (1-346) and against human FLT3-ITD enzyme was greater than 500 nM throughout. For the same molecule, the GI50 with MV4-11 cells is no less than 250 nM; in the assay with RS4;11 cells, greater than 500 nM.
`COc1cc(Nc2nc(N3N=CCC3c3ccccc3)c3sccc3n2)cc(OC)c1OC` (stereo not drawn) [Example 51, 4-(5-phenyl-4,5-dihydro-1H-pyrazol-1-yl)-N-(3,4,5-trimethoxyphenyl)thieno[3,2-d]pyrimidin-2-amine] had an IC50 at human FLT3-ITD enzyme greater than 500 nM. Further, the concentration for 50% growth inhibition (GI50) is no less than 250 nM in the assay on MV4-11 cells and greater than 500 nM in the assay on RS4;11 cells.

One may read the IC50 as the concentration that gives 50% inhibition. High values mean weaker potency in that assay, low ones greater potency in that assay. The GI50 is the concentration that inhibits growth by half.
